Assay [1] relates to Neuron. The experiment in a line: Inhibition of GABA-induced inward current in Periplaneta americana L neuron at 10 uM for 5 min by whole-cell patch clamp method. It is filed as functional.
For assay [2], the system named is Musca domestica. Briefly: Displacement of [3H]EBOB from housefly GABA receptor. In general terms: In a radioligand displacement assay an active substance lowers the binding of a labelled ligand.

The source made the active and inactive calls. The calls are words filed in the database; no cut-off is given here.

`C[C@@]12NC(=O)[C@H](C[C@]13C(=O)Nc1ccccc13)n1c2nc2ccccc2c1=O`: in assay [1], 10 µM produced 90.3% inhibition. Take `CC(C)C[C@@]12NC(=O)[C@H](C[C@@]13C(=O)Nc1ccccc13)n1c2nc2ccccc2c1=O` (racemic): the result in assay [2] was Active. In the case of `CC(C)C[C@@]12NC(=O)[C@H](C[C@]13C(=O)Nc1ccccc13)n1c2nc2ccccc2c1=O` (racemic), the result in assay [2] was Active. Take `CC(C)[C@@]12NC(=O)[C@H](C[C@@]13C(=O)Nc1ccccc13)n1c2nc2ccccc2c1=O` (racemic): the outcome in assay [2] was Active. Still for that read-out and setting: under `CC(C)[C@@]12NC(=O)[C@H](C[C@]13C(=O)Nc1ccccc13)n1c2nc2ccccc2c1=O` (racemic) stands “Active”; under `CN1C(=O)[C@@H]2C[C@@]3(C(=O)N(Cc4ccccc4)c4ccccc43)[C@]1(C)c1nc3ccccc3c(=O)n12` (racemic), “Active”. Same read-out and setting: under `CN1C(=O)[C@@H]2C[C@]3(C(=O)N(Cc4ccccc4)c4ccccc43)[C@]1(C)c1nc3ccccc3c(=O)n12` (racemic) stands “Active”; under `CN1C(=O)[C@@H]2C[C@]3(C(=O)Nc4ccccc43)[C@]1(C)c1nc3ccccc3c(=O)n12` (racemic), “Active”; under `CN1C(=O)[C@@H]2[C@H]3C(=O)N(c4ccccc4)C(=O)[C@H]3[C@]1(C)c1nc3ccccc3c(=O)n12` (racemic), “Active”. On to `CN1C(=O)[C@@]2(C[C@H]3C(=O)N(C)[C@@]2(C)c2nc4ccccc4c(=O)n23)c2ccccc21` (racemic), for which the outcome in assay [2] was Active. As to `CN1C(=O)[C@@]2(C[C@H]3C(=O)N[C@@]2(C)c2nc4ccccc4c(=O)n23)c2ccccc21` (racemic), in assay [2], the outcome was Active. The same measure, in the same setting: with `CN1C(=O)[C@]2(C[C@H]3C(=O)N(C)[C@@]2(C)c2nc4ccccc4c(=O)n23)c2ccccc21` (racemic) the entry was “Active”; with `CN1C(=O)[C@]2(C[C@H]3C(=O)N[C@@]2(C)c2nc4ccccc4c(=O)n23)c2ccccc21` (racemic), “Active”; with `C[C@@]12NC(=O)[C@H](C[C@@]13C(=O)N(Cc1ccccc1)c1ccccc13)n1c2nc2ccccc2c1=O` (racemic), “Active”. Still for that read-out and setting: with `C[C@@]12NC(=O)[C@H](C[C@@]13C(=O)Nc1ccc(Cl)cc13)n1c2nc2ccc(Cl)cc2c1=O` (racemic) the entry was “Active”; with `C[C@@]12NC(=O)[C@H](C[C@@]13C(=O)Nc1ccc(Cl)cc13)n1c2nc2ccccc2c1=O` (racemic), “Active”; with `C[C@@]12NC(=O)[C@H](C[C@@]13C(=O)Nc1ccccc13)n1c2nc2cc(Cl)ccc2c1=O` (racemic), “Active”. Still for that read-out and setting: under `C[C@@]12NC(=O)[C@H](C[C@@]13C(=O)Nc1ccccc13)n1c2nc2ccc(Cl)cc2c1=O` (racemic) stands “Active”. Regarding `C[C@@]12NC(=O)[C@H](C[C@@]13C(=O)Nc1ccccc13)n1c2nc2ccc(F)cc2c1=O` (racemic), the result in assay [2] was Active. Turning to `C[C@@]12NC(=O)[C@H](C[C@@]13C(=O)Nc1ccccc13)n1c2nc2ccccc2c1=O` (racemic), the result in assay [2] was Active. The same measure, in the same setting: under `C[C@@]12NC(=O)[C@H](C[C@]13C(=O)N(Cc1ccccc1)c1ccccc13)n1c2nc2ccccc2c1=O` (racemic) stands “Active”; under `C[C@@]12NC(=O)[C@H](C[C@]13C(=O)Nc1ccc(Cl)cc13)n1c2nc2ccc(Cl)cc2c1=O` (racemic), “Active”; under `C[C@@]12NC(=O)[C@H](C[C@]13C(=O)Nc1ccc(Cl)cc13)n1c2nc2ccccc2c1=O` (racemic), “Active”. Same read-out and setting: with `C[C@@]12NC(=O)[C@H](C[C@]13C(=O)Nc1ccccc13)n1c2nc2cc(Cl)ccc2c1=O` (racemic) the entry was “Active”; with `C[C@@]12NC(=O)[C@H](C[C@]13C(=O)Nc1ccccc13)n1c2nc2ccc(Cl)cc2c1=O` (racemic), “Active”; with `C[C@@]12NC(=O)[C@H](C[C@]13C(=O)Nc1ccccc13)n1c2nc2ccc(F)cc2c1=O` (racemic), “Active”.

`C[C@@]12NC(=O)[C@H](C[C@]13C(=O)Nc1ccccc13)n1c2nc2ccccc2c1=O` (racemic): in assay [2], the result was Active.

On to `C[C@@]12NC(=O)[C@H]([C@H]3C(=O)N(c4ccccc4)C(=O)[C@H]31)n1c2nc2ccccc2c1=O` (racemic), for which the result in assay [2] was Active. On the same count and under the same terms, under `O=C1N[C@@]2(Cc3ccccc3)c3nc4ccccc4c(=O)n3[C@H]1C[C@@]21C(=O)Nc2ccccc21` (racemic) stands “Active”; under `O=C1N[C@@]2(Cc3ccccc3)c3nc4ccccc4c(=O)n3[C@H]1C[C@]21C(=O)Nc2ccccc21` (racemic), “Active”.

Broadly, the inhibition is how much of the control response was suppressed.

The values above are taken from ChEMBL document CHEMBL1139339, “Alantrypinone and its derivatives: synthesis and antagonist activity toward insect GABA receptors” (2009).
